In ChEMBL document CHEMBL3992486 (Medchemcomm, 2016):
Values after ≈ are worked out from the molar mass of the structure shown.

Key:
[1] = system: Mycobacterium tuberculosis; test: Antimycobacterial activity against dormant Mycobacterium bovis BCG ATCC 35743 after 12 days by neutral red dye based two-fold dilution method; type: functional; settings: BCG str. ATCC 35743, 288 h
[2] = Selectivity index, ratio of GI50 for human MCF7 cells to MIC for dormant Mycobacterium tuberculosis H37Ra ATCC 25177; type: toxicity; settings: pooled result: one value given for 3 cell lines, strains, targets or settings, read-out: Selectivity Index
[3] = Selectivity index, ratio of GI50 for human MCF7 cells to MIC for dormant Mycobacterium bovis BCG ATCC 35743; type: toxicity; settings: pooled result: one value given for 3 cell lines, strains, targets or settings, read-out: Selectivity Index
[4] = system: Mycobacterium tuberculosis; test: Antimycobacterial activity against dormant Mycobacterium tuberculosis H37Ra ATCC 25177 after 12 days by XTT dye based two-fold dilution method; type: functional; settings: H37Ra ATCC 25177, 288 h
[5] = Cytotoxicity against human A549 cells by MTT assay; type: cell-based
[6] = Cytotoxicity against human MCF7 cells by MTT assay; type: cell-based

Structure (SMILES) | MIC [1] [µM] | selectivity ratio [2] | selectivity ratio [3] | MIC [4] [µM] | GI50 [5] [µM] | GI50 [6] [µM]
Cc1ccc2cc(C3SCC(=O)N3NC(=O)c3ccncc3)c3nnnn3c2c1 (centres undefined) | 300 (≈ 122 µg/mL) | 94.3 | 833 | 2610 (≈ 1060 µg/mL) |  | 
CC(=O)O[C@H]1C(=O)[C@@]2(C)[C@H]([C@H](OC(=O)c3ccccc3)[C@]3(O)C[C@H](OC(=O)[C@H](O)[C@@H](NC(=O)c4ccccc4)c4ccccc4)C(C)=C1C3(C)C)[C@]1(OC(C)=O)CO[C@@H]1C[C@@H]2O [PACLITAXEL] |  |  |  |  | 80 | 87
CO[C@H]1/C=C/O[C@@]2(C)Oc3c(C)c(O)c4c(O)c(c(/C=N/N5CCN(C)CC5)c(O)c4c3C2=O)NC(=O)/C(C)=C\C=C\[C@H](C)[C@H](O)[C@@H](C)[C@@H](O)[C@@H](C)[C@H](OC(C)=O)[C@@H]1C [RIFAMPIN] | 21 (≈ 17.3 µg/mL) | > 5000 | 1750 | 24 (≈ 19.8 µg/mL) |  | 
COc1ccc2c(c1)cc(C1SCC(=O)N1NC(=O)c1ccncc1)c1nnnn12 (centres undefined) | 140 (≈ 59 µg/mL) | 238 | 11.8 | 990 (≈ 417 µg/mL) |  | 
Cc1ccc2c(c1)cc(C1SCC(=O)N1NC(=O)c1ccncc1)c1nnnn12 (centres undefined) | 8430 (≈ 3420 µg/mL) | 115 | 29.2 | 2140 (≈ 868 µg/mL) |  | 
O=C(NN1C(=O)CSC1c1cc2ccccc2n2nnnc12)c1ccncc1 (centres undefined) | 430 (≈ 168 µg/mL) | 18.9 | 588 |  |  | 
COc1ccc2cc(C3SCC(=O)N3NC(=O)c3ccncc3)c3nnnn3c2c1 (centres undefined) | 360 (≈ 152 µg/mL) | 143 | 667 | 1660 (≈ 700 µg/mL) |  | 
Cc1cccc2cc(C3SCC(=O)N3NC(=O)c3ccncc3)c3nnnn3c12 (centres undefined) | 510 (≈ 207 µg/mL) | 139 | 476 | 1770 (≈ 718 µg/mL) |  | 
